This passage reports IC50 results from patent US20060009493A1, “Indolinone hydrazides as c-Met inhibitors” (Sugen, Inc., priority 2003, published 2006).

T1 sequence (P08581 1078-1345 limits assumed): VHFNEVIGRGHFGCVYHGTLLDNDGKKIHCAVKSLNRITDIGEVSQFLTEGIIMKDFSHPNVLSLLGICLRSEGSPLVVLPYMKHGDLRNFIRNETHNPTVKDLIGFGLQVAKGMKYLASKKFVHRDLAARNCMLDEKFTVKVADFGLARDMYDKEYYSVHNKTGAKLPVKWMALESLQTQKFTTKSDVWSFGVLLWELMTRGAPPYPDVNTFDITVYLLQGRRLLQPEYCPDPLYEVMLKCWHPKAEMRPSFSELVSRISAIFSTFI

The test addresses T1, GST fusion protein containing the Met kinase domain (Homo sapiens, UniProt P08581).
T1 construct: Purified GST fusion protein containing the Met kinase domain, Sugen, Inc
The test is described as follows: MET Transphosphorylation Assay (ELISA, poly(Glu,Tyr) 4:1 substrate). Format: biochemical. Conditions: met transphosphorylation of poly(glutamic acid:tyrosine 4:1) substrate; two values in a cell separated by '/'. An outline of the steps:
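Poly(Glu-Tyr)-coated wells received the GST-Met kinase domain (10 ng/well) with compound in DMSO for 15 minutes. The reaction was started with ATP/MnCl2 in HEPES pH 7.5 buffer with vanadate, run 5 minutes, and stopped with EDTA. Phosphotyrosine was detected by anti-pTyr antibody, HRP secondary and ABTS/H2O2.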
(An ELISA detects its analyte on a solid surface through an enzyme-linked reagent.)
What is called IC50 is the concentration that gives 50% inhibition. Molecule `CCOc1ccc(CC(=O)N/N=C2\C(=O)Nc3ccccc32)cc1` [II-10, (4-Ethoxy-phenyl)-acetic acid [(3Z)-2-oxo-1,2-dihydro-indol-3-ylidene]-hydrazide] had an IC50 of more than 20000 nM. The figure for `Cc1ccc(CC(=O)N/N=C2\C(=O)Nc3ccccc32)cc1` [II-11, p-Tolyl-acetic acid [(3Z)-2-oxo-1,2-dihydro-indol-3-ylidene]-hydrazide] is more than 20000 nM; for `COc1cccc(CC(=O)N/N=C2\C(=O)Nc3ccccc32)c1` [II-12, (3-Methoxy-phenyl)-acetic acid [(3Z)-2-oxo-1,2-dihydro-indol-3-ylidene]-hydrazide] it is 7200 nM; for `O=C(Cc1ccccc1Cl)N/N=C1\C(=O)Nc2ccccc21` [II-13, (2-Chloro-phenyl)-acetic acid [(3Z)-2-oxo-1,2-dihydro-indol-3-ylidene]-hydrazide] it is more than 20000 nM. The figure for `O=C(Cc1cccc(Cl)c1)N/N=C1\C(=O)Nc2ccccc21` [II-14, (3-Chloro-phenyl)-acetic acid [(3Z)-2-oxo-1,2-dihydro-indol-3-ylidene]-hydrazide] is 5680 nM; for `O=C(Cc1cccc(Cl)c1)N/N=C1\C(=O)Nc2ccc(Br)cc21` [II-15, (3-Chloro-phenyl)-acetic acid [(3Z)-5-bromo-2-oxo-1,2-dihydro-indol-3-ylidene]-hydrazide] it is 13700 nM; for `COc1ccc(CC(=O)N/N=C2\C(=O)Nc3ccc(Br)cc32)cc1OC` [II-16, (3,4-Dimethoxy-phenyl)-acetic acid [(3Z)-5-bromo-2-oxo-1,2-dihydro-indol-3-ylidene)-hydrazide] it is 18500 nM. The figure for `COc1ccc(C(C)C(=O)N/N=C2\C(=O)Nc3ccccc32)cc1` (centres unmarked) [II-17] is 230 nM. For the molecule `CC(C(=O)N/N=C1\C(=O)Nc2ccccc21)c1ccc(O)cc1` (centres unmarked) [II-18, 2-(4-Hydroxy-phenyl)-propionic acid [(3Z)-2-oxo-1,2-dihydro-indol-3-ylidene]-hydrazide], the IC50 was determined as 30 nM. For `O=C(Cc1ccc(O)cc1)N/N=C1\C(=O)Nc2ccc(F)cc21` [II-19, (4-Hydroxy-phenyl)-acetic acid [(3Z)-5-fluoro-2-oxo-1,2-dihydro-indol-3-ylidene]-hydrazide] the value was 29 nM; for `O=C(Cc1ccc(O)cc1)N/N=C1\C(=O)Nc2ccc(Br)cc21` [II-20, (4-Hydroxy-phenyl)-acetic acid [(3Z)-5-bromo-2-oxo-1,2-dihydro-indol-3-ylidene]-hydrazide], 24 nM. For `O=C(Cc1ccncc1)N/N=C1\C(=O)Nc2ccccc21` [II-21, Pyridin-4-yl-acetic acid [(3Z)-2-oxo-1,2-dihydro-indol-3-ylidene]-hydrazide] the value was 3100 nM.

The molecule `Nc1ccc(CC(=O)N/N=C2\C(=O)Nc3ccccc32)cc1` [II-22] displayed an IC50 of more than 20000 nM. For `O=C(Cc1ccc(O)cc1)N/N=C1\C(=O)Nc2ccccc21` [II-23, (4-Hydroxy-phenyl)-acetic acid [(3E)-2-oxo-1,2-dihydro-indol-3-ylidene]-hydrazide] the value was 520 nM. The figure for `O=C(CCc1ccc(O)cc1)N/N=C1\C(=O)Nc2ccccc21` [II-24, 3-(4-Hydroxy-phenyl)-propionic acid [(3E)-2-oxo-1,2-dihydro-indol-3-ylidene]-hydrazide] is more than 20000 nM; for `O=C(CCc1ccc(O)cc1)N/N=C1\C(=O)Nc2ccccc21` [II-25, 3-(4-Hydroxy-phenyl)-propionic acid [(3Z)-2-oxo-1,2-dihydro-indol-3-ylidene]-hydrazide] it is 6350 nM. The figure for `Cc1cc(C)c2c(c1)/C(=N/NC(=O)Cc1ccc(O)cc1)C(=O)N2` [II-26, (4-Hydroxy-phenyl)-acetic acid [(3Z)-5,7-dimethyl-2-oxo-1,2-dihydro-indol-3-ylidene]-hydrazide] is 20 nM; for `O=C(Cc1ccc(F)cc1)N/N=C1\C(=O)Nc2ccccc21` [II-27, (4-Fluoro-phenyl)-acetic acid [(3Z)-2-oxo-1,2-dihydro-indol-3-ylidene]-hydrazide] it is 2150 nM; for `O=C(Cc1cccc(O)c1)N/N=C1\C(=O)Nc2ccccc21` [II-30, (3-Hydroxy-phenyl)-acetic acid [(3Z)-2-oxo-1,2-dihydro-indol-3-ylidene]-hydrazide] it is 1450 nM. As to `Cc1ccc(C)c2c1NC(=O)/C2=N\NC(=O)Cc1ccc(O)cc1` [II-31, (4-Hydroxy-phenyl)-acetic acid [(3Z)-4,7-dimethyl-2-oxo-1,2-dihydro-indol-3-ylidene]-hydrazide], the IC50 amounted to 15 nM. The figure for `O=C(Cc1ccc(O)cc1)N/N=C1\C(=O)Nc2c(Br)cc(Cl)cc21` [II-32, (4-Hydroxy-phenyl)-acetic acid [(3Z)-7-bromo-5-chloro-2-oxo-1,2-dihydro-indol-3-ylidene]-hydrazide] is 54 nM; for `O=C(Cc1ccc(O)cc1)N/N=C1\C(=O)Nc2ccc(Cl)c(Cl)c21` [II-33, (4-Hydroxy-phenyl)-acetic acid [(3Z)-4,5-dichloro-2-oxo-1,2-dihydro-indol-3-ylidene]-hydrazide] it is 15 nM; for `O=C(Cc1ccc(Br)cc1)N/N=C1\C(=O)Nc2ccccc21` [II-34, (4-Bromo-phenyl)-acetic acid [(3Z)-2-oxo-1,2-dihydro-indol-3-ylidene]-hydrazide] it is more than 20000 nM. For `Cc1c(Br)ccc2c1/C(=N/NC(=O)Cc1ccc(O)cc1)C(=O)N2` [II-35, (4-Hydroxy-phenyl)-acetic acid [(3Z)-5-bromo-4-methyl-2-oxo-1,2-dihydro-indol-3-ylidene)-hydrazide] the value was 16 nM; for `O=C(Cc1ccc(O)cc1)N/N=C1\C(=O)Nc2c(Cl)cccc21` [II-36, (4-Hydroxy-phenyl)-acetic acid [(3Z)-7-chloro-2-oxo-1,2-dihydro-indol-3-ylidene]-hydrazide], 22 nM. The figure for `O=C(Cc1cc[n+]([O-])cc1)N/N=C1\C(=O)Nc2ccccc21` [II-37, (1-Oxy-pyridin-4-yl)-acetic acid [(3Z)-2-oxo-1,2-dihydro-indol-3-ylidene]-hydrazide] is 10800 nM; for `O=C(Cc1ccc(O)cc1)N/N=C1\C(=O)Nc2c(Cl)ccc(Cl)c21` [II-38, (4-Hydroxy-phenyl)-acetic acid [(3Z)-4,7-dichloro-2-oxo-1,2-dihydro-indol-3-ylidene]-hydrazide] it is 13 nM; for `O=C(Cc1ccc(O)cc1)N/N=C1\C(=O)Nc2cccc(Cl)c21` [II-39, (4-Hydroxy-phenyl)-acetic acid [(3Z)-4-chloro-2-oxo-1,2-dihydro-indol-3-ylidene]-hydrazide] it is 8 nM. Regarding `COc1cc(CC(=O)N/N=C2\C(=O)Nc3ccccc32)ccc1O` [II-40, (4-Hydroxy-3-methoxy-phenyl)-acetic acid [(3Z)-2-oxo-1,2-dihydro-indol-3-ylidene]-hydrazide], it took 240 nM to reach half-maximal inhibition (IC50). For `O=C(Cc1ccc(O)c(O)c1)N/N=C1\C(=O)Nc2ccccc21` [II-41, (3,4-Dihydroxy-phenyl)-acetic acid [(3Z)-2-oxo-1,2-dihydro-indol-3-ylidene]-hydrazide], the IC50 worked out at 1770 nM. The figure for `O=C(Cc1ccc(O)c(Cl)c1)N/N=C1\C(=O)Nc2ccccc21` [II-42] is 36 nM; for `O=C(Cc1ccc(O)c(F)c1)N/N=C1\C(=O)Nc2ccccc21` [II-43, (3-Fluoro-4-hydroxy-phenyl)-acetic acid [(3Z)-2-oxo-1,2-dihydro-indol-3-ylidene]-hydrazide] it is 54 nM.

`CC(C(=O)N/N=C1\C(=O)Nc2ccc(Cl)c(Cl)c21)c1ccc(O)cc1` (centres unmarked) [II-44] showed an IC50 of 22 nM. `COc1ccc(CC(=O)N/N=C2\C(=O)Nc3c(C)ccc(C)c32)cn1` [II-45, (6-Methoxy-pyridin-3-yl)-acetic acid [(3Z)-4,7-dimethyl-2-oxo-1,2-dihydro-indol-3-ylidene]-hydrazide] showed an IC50 of 110 nM. On to `O=C(Cc1ccc(O)c([N+](=O)[O-])c1)N/N=C1\C(=O)Nc2ccccc21` [II-46, (4-Hydroxy-3-nitro-phenyl)-acetic acid [(3Z)-2-oxo-1,2-dihydro-indol-3-ylidene]-hydrazide], for which half-maximal inhibition (IC50) required 610 nM.

`Cc1cccc2c1/C(=N/NC(=O)Cc1ccc(O)cc1)C(=O)N2` [II-47, (4-Hydroxy-phenyl)-acetic acid [(3Z)-4-methyl-2-oxo-1,2-dihydro-indol-3-ylidene]-hydrazide]: the IC50 came to 22 nM. For `Cc1ccc(C)c2c1NC(=O)/C2=N\NC(=O)Cc1ccc(O)c(F)c1` [II-49, (3-Fluoro-4-hydroxy-phenyl)-acetic acid [(3Z)-4,7-dimethyl-2-oxo-1,2-dihydro-indol-3-ylidene]-hydrazide] the value was less than 9.1 nM; for `Cc1ccc(C)c2c1NC(=O)/C2=N\NC(=O)Cc1ccc(O)nc1` [II-50, (6-Hydroxy-pyridin-3-yl)-acetic acid [(3Z)-4,7-dimethyl-2-oxo-1,2-dihydro-indol-3-ylidene]-hydrazide], 37 nM; for `O=C(Cc1ccc(O)cc1)N/N=C1\C(=O)Nc2cc(Cl)ccc21` [II-51, (4-Hydroxy-phenyl)-acetic acid [(3Z)-6-chloro-2-oxo-1,2-dihydro-indol-3-ylidene]-hydrazide], 17 nM.

Take `O=C(Cc1ccc(F)cc1)N/N=C1\C(=O)Nc2ccc(Cl)c(Cl)c21` [II-52, (4-Fluoro-phenyl)-acetic acid [(3Z)-4,5-dichloro-2-oxo-1,2-dihydro-indol-3-ylidene]-hydrazide]: the IC50 worked out at 210 nM. For `Cc1ccc2c(c1Br)/C(=N/NC(=O)Cc1ccc(O)cc1)C(=O)N2` [II-53, (4-Hydroxy-phenyl)-acetic acid [3Z)-(4-bromo-5-methyl-2-oxo-1,2-dihydro-indol-3-ylidene]-hydrazide] the value was 23 nM.
